Here are results for one molecule from ChEMBL document CHEMBL4428037 (J Med Chem, 2016).

Series [1] concerns HepG2. The series is described as follows: Growth inhibition of human HepG2 cells incubated for 72 hrs by MTT assay. The class given is functional, cell-based. The settings on record: HepG2, 72 h.
Series [2] deals with PC-3. Description: Growth inhibition of human PC3 cells incubated for 72 hrs by MTT assay. The class given is functional, cell-based. The settings on record: PC-3, 72 h.
Series [3] relates to NCI-H460. The series is described as follows: Growth inhibition of human NCI-H460 cells incubated for 48 hrs by MTT assay. The note with it: NCI-H460, 48 h. Format: functional, cell-based.
For series [4], the system named is NCI-H460. The series is described as follows: Inhibition of colony formation in human NCI-H460 cells incubated for 9 days by crystal violet staining based assay. Format: functional, cell-based.
Series [5] addresses Tubulin (Sus scrofa) (UniProt P02554+P02550). Description: Displacement of [3H]colchicine from biotinylated porcine tubulin at 1 uM incubated for 2 hrs by competition scintillation proximity. Format: protein assay.
Series [6] concerns the target Tubulin alpha (Homo sapiens) (UniProt P0DPH7+P68366+Q71U36+P68363+Q9BQE3+Q6PEY2+A6NHL2+Q9NY65). The series is described as follows: Inhibition of alpha tubulin polymerization in human A549 cells assessed as induction of microtubule network dis-organization at 40 nM by Immunofluorescent staining based fluorescence microscopy. Format: cell-based.
Series [7] has as its system A549. Description: Induction of cell cycle arrest in human A549 cells assessed as accumulation at G2/M phase incubated for 24 hrs by propidium iodide staining based FACS flow cytometry. The class given is functional.
Series [8] concerns A549. Description: Reduction in p-cdc2 expression in human A549 cells incubated for 24 hrs by Western blotting. Format: functional, cell-based.
The test system of series [9] is A549. The series is described as follows: Induction of apoptosis in human A549 cells assessed as induction of chromatin condensation at 40 nM incubated for 24 hrs microscopy. Format: functional, cell-based.
In series [10] the test system is A549. Description: Induction of apoptosis in human A549 cells assessed as live cells level at 20 nM incubated for 24 hrs by Annexin V-FITC/PI staining based FACS flow cytometry (reference value: 96.83%). The class given is functional.
Series [11] has as its system A549. Description: Induction of apoptosis in human A549 cells assessed as late apoptotic cells level at 20 nM incubated for 24 hrs by Annexin V-FITC/PI staining based FACS flow cytometry (reference value: 2.15%). The class given is functional.
Series [12] relates to A549. The series is described as follows: Induction of apoptosis in human A549 cells assessed as increase in cleaved caspase-3 level incubated for 24 hrs by Western blotting. Format: functional, cell-based.
Series [13] can be described thus: Toxicity in human NSCLC xenografted Balb/c-nu mouse assessed as induction of adverse effects at 12.5 mg/kg, ip dosed every day for 21 consecutive days. Format: organism-based. The settings on record: in vivo.
The nature of series [14]: Toxicity in human NSCLC xenografted Balb/c-nu mouse assessed as induction of adverse effects at 50 mg/kg, ip dosed every day for 21 consecutive days. The class given is organism-based. The settings on record: in vivo.

pIC50: −log10 of the molar value. The source made the active and inactive calls. The rule behind the calls is not given here.

For `CCOc1cccc(Nc2nn(C)c3c2Cc2cc(OCC)c(OCC(N)=O)cc2-3)c1`, the figures for the pIC50 in series [1], in series [2] and in [3] were 7.59, 7.72 and 7.43, respectively. Further, the figures for the inhibition entry in series [4] and in series [5] were “Dose-dependent effect” and 37%, respectively. Moreover, in series [6], the inhibition entry was “Active”. The Activity entry was “Dose-dependent effect” in [7]; “Dose-dependent effect” in series [8]; 90.81% in [10]; 4.57% in series [11]; “Dose-dependent effect” in series [12]; “Non-Toxic” in [13]. The Activity entry in [14] was “Non-Toxic”. The result in series [9] was Active.
